Laboratory results published in patent US6737383B1, “Herbicidal oxadiazolidines” (priority 1999, dated 2004).

Assays:
smallflower flatsedge = test: Test B flood test smallflower flatsedge; format: in vivo, Cyperus difformis
Summary of the method: (§1)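 Plants were grown to the 2-leaf stage before treatment with test chemical, then held in a greenhouse for twelve to sixteen days. Injury was visually rated against untreated controls on a 0–10 scale, where 0 is no effect and 10 is complete control.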

wheat = test: Test B pre/postemergence wheat; format: in vivo, Triticum aestivum
Summary of the method: (§2)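 Herbicidal effect was estimated by eye on a ten-point control scale after plants spent twelve to sixteen days in a greenhouse following soil or foliar treatment. Foliar sprays targeted plants at one to four leaves; all doses were formulated in a non-phytotoxic solvent with surfactant.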

duck salad = test: Test B flood test duck salad; format: in vivo, Heteranthera limosa
Summary of the method: as §1

corn = test: Test B pre/postemergence corn; format: in vivo, Zea mays
Summary of the method: as §2

cocklebur = test: Test B pre/postemergence cocklebur; format: in vivo, Xanthium strumarium
Summary of the method: as §2

surinam grass = test: Test B pre/postemergence surinam grass; format: in vivo, Brachiaria decumbens
Summary of the method: as §2

sugar beet = test: Test B pre/postemergence sugar beet; format: in vivo, Beta vulgaris
Summary of the method: as §2

purple nutsedge = test: Test B pre/postemergence purple nutsedge; format: in vivo, Cyperus rotundus
Summary of the method: as §2

soybean = test: Test B pre/postemergence soybean; format: in vivo, Glycine max
Summary of the method: as §2

rice = test: Test B flood test rice; format: in vivo, Oryza sativa
Summary of the method: as §1

pigweed = test: Test B pre/postemergence pigweed; format: in vivo, Amaranthus retroflexus
Summary of the method: as §2

bedstraw = test: Test B pre/postemergence bedstraw; format: in vivo, Galium aparine
Summary of the method: as §2

wild oat = test: Test B pre/postemergence wild oat; format: in vivo, Avena fatua
Summary of the method: as §2

rape = test: Test B pre/postemergence rape; format: in vivo, Brassica napus
Summary of the method: as §2

giant foxtail = test: Test B pre/postemergence giant foxtail; format: in vivo, Setaria faberii
Summary of the method: as §2

velvetleaf = test: Test B pre/postemergence velvetleaf; format: in vivo, Abutilon theophrasti
Summary of the method: as §2

[1] = Rate 62 g/ha, headed Pre-emergence (flood test species), scale 0 to 10 (0 no effect, 10 complete control)
[2] = Rate 125 g/ha, Pre-emergence, flood test species, scale 0 to 10 where 0 is no effect and 10 is complete control
[3] = Rate 250 g/ha, Pre-emergence, flood-test species, scale 0 to 10, 0 is no effect, 10 is complete control
[4] = Preemergence, Rate 62 g/ha, scale of 0 to 10 where 0 is no effect and 10 is complete control
[5] = Preemergence, Rate 250 g/ha, scale 0 to 10, 0 is no effect, 10 is complete control
[6] = Preemergence, Rate 500 g/ha, scale 0 to 10 (0 no effect, 10 complete control)
[7] = Rate 62 g/ha, Postemergence, scale of 0 to 10 where 0 is no effect and 10 is complete control
[8] = Rate 125 g/ha, Postemergence, scale 0 to 10
[9] = Rate 500 g/ha, headed Pre-emergence (flood test species), scale 0 to 10 (0 no effect, 10 complete control)
[10] = Preemergence, Rate 125 g/ha, 0 is no effect, 10 is complete control
[11] = Rate 500 g/ha, Postemergence, scale 0 to 10

For `Cc1nc(C)c(Cn2c(=O)on(C(=O)N(c3ccc(Cl)cc3)C(C)C)c2=O)s1` [Compound 191], the “S. Flatsedge plant response rating” value (smallflower flatsedge; [1]) was 0, the “S. Flatsedge plant response rating” value (smallflower flatsedge; [2]) was 0 and the “S. Flatsedge plant response rating” value (smallflower flatsedge; [3]) was 0. The “S. Flatsedge plant response rating” value (smallflower flatsedge; Rate 500 g/ha, Pre-emergence, flood test species, scale 0 to 10 (0 no effect, 10 complete control)) was 0, the “Wheat plant response rating” value (wheat; [4]) was 0 and the “Wheat plant response rating” value (wheat; [5]) was 0. For the same compound, the “Wheat plant response rating” value (wheat; [6]) was 2, the “Wheat plant response rating” value (wheat; [7]) was 0 and the “Wheat plant response rating” value (wheat; [8]) was 0. For the same compound, the “Plant response rating (0 to 10; 0 is no effect, 10 is complete control), Wheat” value (wheat; Rate 250 g/ha, Postemergence) was 0, the “Ducksalad plant response rating” value (duck salad; [1]) was 0 and the “Ducksalad plant response rating” value (duck salad; [2]) was 0. For the same compound, the “Ducksalad plant response rating” value (duck salad; [3]) was 0, the “Plant response rating, Ducksalad” value (duck salad; [9]) was 0 and the “Corn plant response rating” value (corn; [4]) was 0. For the same compound, the “Corn plant response rating (0 to 10 scale)” value (corn; [10]) was 0, the “Corn plant response rating” value (corn; [5]) was 0 and the “Corn plant response rating” value (corn; [6]) was 0. For the same compound, the “Corn plant response rating” value (corn; [7]) was 0, the “Corn plant response rating” value (corn; [8]) was 0 and the “Plant response rating (0 to 10; 0 is no effect, 10 is complete control), Corn” value (corn; Rate 250 g/ha, Postemergence) was 0. For the same compound, the “Corn plant response rating” value (corn; [11]) was 0, the “Cocklebur plant response rating” value (cocklebur; [4]) was 0 and the “Cocklebur plant response rating (0 to 10 scale)” value (cocklebur; [10]) was 0. The “Cocklebur plant response rating” value (cocklebur; [5]) was 0, the “Cocklebur plant response rating” value (cocklebur; [6]) was 0 and the “Cocklebur plant response rating” value (cocklebur; [7]) was 1. For the same compound, the “Cocklebur plant response rating” value (cocklebur; [8]) was 2, the “Plant response rating (0 to 10; 0 is no effect, 10 is complete control), Cocklebur” value (cocklebur; Rate 250 g/ha, Postemergence) was 2 and the “Cocklebur plant response rating” value (cocklebur; [11]) was 3. For the same compound, the “B. signalgrass plant response rating” value (surinam grass; [4]) was 0, the “B. signalgrass plant response rating (0 to 10 scale)” value (surinam grass; [10]) was 0 and the “B. signalgrass plant response rating” value (surinam grass; [5]) was 0. For the same compound, the “B. signalgrass plant response rating” value (surinam grass; [6]) was 3, the “B. signalgrass plant response rating” value (surinam grass; [7]) was 0 and the “B. signalgrass plant response rating” value (surinam grass; Rate 125 g/ha, Postemergence, scale 0 (no effect) to 10 (complete control)) was 0. The “Plant response rating, B. signalgrass” value (surinam grass; Rate 250 g/ha, Postemergence, scale 0 to 10, 0 is no effect, 10 is complete control) was 0, the “B. signalgrass plant response rating” value (surinam grass; Rate 500 g/ha, Postemergence, scale 0 to 10, 0 no effect, 10 complete control) was 1 and the “Sugarbeets plant response rating” value (sugar beet; [4]) was 0. For the same compound, the “Sugarbeets plant response rating (0 to 10 scale)” value (sugar beet; [10]) was 0, the “Sugarbeets plant response rating” value (sugar beet; [5]) was 0 and the “Sugarbeets plant response rating” value (sugar beet; [6]) was 0. The “Sugarbeets plant response rating” value (sugar beet; [7]) was 0, the “Sugarbeets plant response rating” value (sugar beet; [8]) was 0 and the “Plant response rating (0 to 10; 0 is no effect, 10 is complete control), Sugarbeets” value (sugar beet; Rate 250 g/ha, Postemergence) was 0. The “Sugarbeets plant response rating” value (sugar beet; [11]) was 0, the “Nutsedge plant response rating” value (purple nutsedge; [4]) was 0 and the “Nutsedge plant response rating (0 to 10 scale)” value (purple nutsedge; [10]) was 0. The “Nutsedge plant response rating” value (purple nutsedge; [5]) was 0, the “Nutsedge plant response rating” value (purple nutsedge; [6]) was 0 and the “Nutsedge plant response rating” value (purple nutsedge; [7]) was 0. The “Nutsedge plant response rating” value (purple nutsedge; [8]) was 0, the “Plant response rating (0 to 10; 0 is no effect, 10 is complete control), Nutsedge” value (purple nutsedge; Rate 250 g/ha, Postemergence) was 0 and the “Nutsedge plant response rating” value (purple nutsedge; [11]) was 0. The “Soybean plant response rating” value (soybean; [4]) was 0, the “Soybean plant response rating (0 to 10 scale)” value (soybean; [10]) was 0 and the “Soybean plant response rating” value (soybean; [5]) was 0. For the same compound, the “Soybean plant response rating” value (soybean; [6]) was 0, the “Soybean plant response rating” value (soybean; [7]) was 3 and the “Soybean plant response rating” value (soybean; [8]) was 3. The “Plant response rating (0 to 10; 0 is no effect, 10 is complete control), Soybean” value (soybean; Rate 250 g/ha, Postemergence) was 3, the “Soybean plant response rating” value (soybean; [11]) was 4 and the “Rice plant response rating” value (rice; [1]) was 0. The “Rice plant response rating” value (rice; [2]) was 0, the “Rice plant response rating” value (rice; [3]) was 0 and the “Plant response rating, Rice” value (rice; [9]) was 0. For the same compound, the “Redroot pigweed plant response rating” value (pigweed; [4]) was 0, the “Redroot pigweed plant response rating (0 to 10 scale)” value (pigweed; [10]) was 0 and the “Redroot pigweed plant response rating” value (pigweed; [5]) was 1. The “Redroot pigweed plant response rating” value (pigweed; [6]) was 6, the “Redroot pigweed plant response rating” value (pigweed; [7]) was 0 and the “Redroot pigweed plant response rating” value (pigweed; [8]) was 0. The “Plant response rating (0 to 10; 0 is no effect, 10 is complete control), Redroot pigweed” value (pigweed; Rate 250 g/ha, Postemergence) was 0, the “Redroot pigweed plant response rating” value (pigweed; [11]) was 0 and the “Bedstraw plant response rating” value (bedstraw; [4]) was 0. The “Bedstraw plant response rating (0 to 10 scale)” value (bedstraw; [10]) was 0, the “Bedstraw plant response rating” value (bedstraw; [5]) was 0 and the “Bedstraw plant response rating” value (bedstraw; [6]) was 0. For the same compound, the “Bedstraw plant response rating” value (bedstraw; [7]) was 0, the “Bedstraw plant response rating” value (bedstraw; [8]) was 0 and the “Plant response rating (0 to 10; 0 is no effect, 10 is complete control), Bedstraw” value (bedstraw; Rate 250 g/ha, Postemergence) was 0. The “Bedstraw plant response rating” value (bedstraw; [11]) was 0, the “Wild oats plant response rating” value (wild oat; [5]) was 3 and the “Wild oats plant response rating” value (wild oat; [6]) was 7. For the same compound, the “Wild oats plant response rating” value (wild oat; [7]) was 0, the “Wild oats plant response rating” value (wild oat; [8]) was 0 and the “Plant response rating (0 to 10; 0 is no effect, 10 is complete control), Wild oats” value (wild oat; Rate 250 g/ha, Postemergence) was 0. For the same compound, the “Rape plant response rating” value (rape; [4]) was 0, the “Rape plant response rating (0 to 10 scale)” value (rape; [10]) was 0 and the “Rape plant response rating” value (rape; [5]) was 0. For the same compound, the “Rape plant response rating” value (rape; [6]) was 0, the “Rape plant response rating” value (rape; [7]) was 0 and the “Rape plant response rating” value (rape; [8]) was 0. For the same compound, the “Plant response rating (0 to 10; 0 is no effect, 10 is complete control), Rape” value (rape; Rate 250 g/ha, Postemergence) was 0, the “Rape plant response rating” value (rape; [11]) was 0 and the “Giant foxtail plant response rating” value (giant foxtail; [4]) was 3. For the same compound, the “Giant foxtail plant response rating (0 to 10 scale)” value (giant foxtail; [10]) was 8, the “Giant foxtail plant response rating” value (giant foxtail; [5]) was 9 and the “Giant foxtail plant response rating” value (giant foxtail; [6]) was 10. For the same compound, the “Giant foxtail plant response rating” value (giant foxtail; [7]) was 0, the “Giant foxtail plant response rating” value (giant foxtail; [8]) was 0 and the “Plant response rating (0 to 10; 0 is no effect, 10 is complete control), Giant foxtail” value (giant foxtail; Rate 250 g/ha, Postemergence) was 0. The “Giant foxtail plant response rating” value (giant foxtail; [11]) was 2, the “Velvetleaf plant response rating” value (velvetleaf; [4]) was 0 and the “Velvetleaf plant response rating” value (velvetleaf; [5]) was 0. The “Velvetleaf plant response rating” value (velvetleaf; [6]) was 0, the “Velvetleaf plant response rating” value (velvetleaf; [7]) was 0 and the “Velvetleaf plant response rating” value (velvetleaf; [8]) was 0. The “Plant response rating (0 to 10; 0 is no effect, 10 is complete control), Velvetleaf” value (velvetleaf; Rate 250 g/ha, Postemergence) was 2.
